What was measured:
[1] = test system: male C57BL/6J mice; assay: Blood ethanol concentration after ethanol ingestion (headspace gas chromatography); type: in vivo; settings: oral/intragastric 500 mg/kg (Example 1: 250 or 500 mg/kg) before 8 ml/kg ethanol (40% w/v); FIG. 1A
Description: Mice were randomly divided into a normal group (untreated group), a control group and a treatment group, with 8 mice in each group. […] The control group was given the same ethanol solution and corresponding distilled water, while the normal group was only given corresponding distilled water. At different time points of the experiment, the mice were anesthetized by intraperitoneal injection of 10% chloral hydrate (350 mg/kg body weight). Blood and liver tissues were extracted from each animal.
Eyeball blood samples (0.3 mL) were taken, each was put into an 8 mL headspace vial containing 1.2 mL 0.6 M perchloric acid, 0.5 mL trichloroacetic acid (10%) and 0.3 mL internal standard (160 mg/L tertiary butanol), and the concentrations of ethanol and acetaldehyde were determined with headspace gas chromatography.
Blood samples were collected from the infraorbital venous plexus at different time points (as indicated) after the ethanol administration. Blood ethanol (FIG. 1A) and acetaldehyde (FIG. 1B) levels were determined. Each group contained 6-8 mice. Data are presented as the mean±SD.

[2] = test system: male C57BL/6J mice; assay: Liver MDA and SOD, oxidative damage caused by acute alcohol ingestion; type: in vivo; settings: 500 mg/kg intragastric 15 min prior to 8 ml/kg ethanol (40% w/v), liver 6 hours after alcohol; for MDA content in the liver: FIG. 3A; for SOD activity in liver: FIG. 3B
[3] = cited from earlier work
[4] = after oral administration; cited from earlier work
[5] = test system: glutamate receptors; settings: not as great as that of L-glutamic acid; cited from earlier work
[6] = test system: mice; settings: intraperitoneal injection of theanine, oral administration of ethanol; cited from earlier work
[7] = test system: mice; settings: cited from earlier work
[8] = test system: rats; settings: cited from earlier work
[9] = test system: male C57BL/6J mice; assay: Blood acetaldehyde concentration after ethanol ingestion (headspace gas chromatography); type: in vivo; settings: FIG. 1B
[10] = test system: male C57BL/6J mice; assay: Plasma AST and ALT, acute alcohol-induced hepatotoxicity; type: in vivo; settings: 500 mg/kg intragastric before 8 ml/kg ethanol (40% w/v), blood 6 hours after alcohol, vs model group
[11] = test system: male C57BL/6J mice; assay: Liver triglyceride (TG) level, lipid metabolism in acute alcoholic liver damage; type: in vivo; settings: 500 mg/kg pretreatment, alcohol-loaded mice, vs alcohol exposure alone; FIG. 4A
[12] = test system: male C57BL/6J mice; assay: Serum very low density lipoprotein (VLDL), lipid metabolism in acute alcoholic liver damage; type: in vivo; settings: 500 mg/kg pretreatment, alcohol-loaded mice, vs alcohol exposure alone; FIG. 4B
[13] = test system: C57BL/6J mice; settings: cited from earlier work
[14] = test system: cells; settings: cited from earlier work

## CC(=O)N[C@@H](CS)C(=O)O [NAC, N-acetyl-cysteine]
[1]
  ethanol in blood: significantly reduce
[2]
  MDA content in the liver: significantly reduce
  SOD activity in liver: increase

## N[C@@H](CS)C(=O)O [L-cysteine]
[3]; dose of 600 mg
  stress and anxiety: relieved
[3]; dose of 1200 mg
  self-assessed severity of the hangover, nausea and headache: improved

## CCNC(=O)CC[C@H](N)C(=O)O [L-theanine]
[1]
  ethanol in blood: significantly reduce
[4]
  time to cross the blood-brain barrier: ≤ 30 min
[5]
  binding affinity to glutamate receptors: weak
[6]
  effect with respect to alcoholic liver injury: protective effect

## O=C1c2c(O)cc(O)cc2O[C@H](c2cc(O)c(O)c(O)c2)[C@H]1O [DHM, Dihydromyricetin]
[1]
  ethanol in blood: significantly reduce
[7]
  blood alcohol levels: reduce blood alcohol levels
[8]
  muscle relaxation induced by alcohol: prevent muscle relaxation

## NC(=O)C1=CN([C@@H]2O[C@H](COP(=O)(O)OP(=O)(O)OC[C@H]3O[C@@H](n4cnc5c(N)ncnc54)C(O)C3O)C(O)C2O)C=CC1 (some centres unmarked) [NADH, nicotinamide adenine dinucleotide (NAD)+hydrogen (H)]
[1]
  ethanol in blood: significantly reduce
[9]; after two hours after ethanol administration
  acetaldehyde in the blood: significantly reduced
[9]; between 30 minutes and two hours after ethanol administration
  blood acetaldehyde levels: significantly increased
[10]; FIG. 2A
  plasma AST level: significantly reduce
[10]; FIG. 2B
  plasma ALT level: significantly reduce
[2]
  MDA content in the liver: significantly reduce
  SOD activity in liver: increase
[11]
  liver TG level: decreased
[12]
  serum VLDL level: decreased
[13]
  liver NAD+/NADH ratio: significantly increased
[13]; intraperitoneal injection
  NAD+ content in liver, blood, brain and fat: significantly increased
[14]; NADH-treated cells, e.g. hydrogen peroxide
  cell death caused by NAD+-depleting genotoxins: resistant to cell death
[14]; at the same concentrations
  NAD+ increase compared to nicotinamide mononucelotide (NMN): greater NAD+ increases
[14]
  apoptosis markers in cells: did not induce apoptosis markers

Source: patent US11458155B1, “Active ingredient complexes, compositions and methods for hangover relief and to ameliorate alcohol-induced liver damage” (FULGENT LIFE INC., priority 2021, dated 2022)
